This is an account of results in ChEMBL document CHEMBL6177963, “Development of acylhydrazone linked thiazoles as non-covalent dual inhibitors of SARS-CoV-2 proteases” (Eur J Med Chem, 2025).

SMILES strings stand for the structures. Active and inactive are the calls of the source. The rule behind the calls is not given here.

Data set [1] in a line: Cytotoxicity against human HEK293 cells assessed as cell viability measured after 48 hrs by MTT assay. It counts as toxicity, cell-based.
Data set [2] has as its system Severe acute respiratory syndrome coronavirus 2. Kind of data set: Non-covalent inhibition of SARS-CoV-2 MPro by Lineweaver-Burk Plot analysis.
The target in data set [3] is Replicase polyprotein 1ab (Severe acute respiratory syndrome coronavirus 2) (UniProt P0DTD1). Kind of data set: Binding affinity to SARS-CoV-2 PLpro assessed as thermal stability by measuring melting temperature of half of the proteins unfolded by differential scanning fluorimetry (DSF) (reference value: 45.79 degC).
Data set [4] concerns SARS-CoV-2. Kind of data set: Antiviral activity against SARS-CoV-2 infected in African green monkey Vero E6 cells assessed as viral load reduction at 4 uM by measuring viral RNA measured up to 72 hrs by RT-PCR analysis relative to control. The class given is functional, Severe acute respiratory syndrome coronavirus 2, Vero C1008. Further details: scale not given: the % may be the effect or the level left.

Data set [5] deals with T1, Replicase polyprotein 1ab (Severe acute respiratory syndrome coronavirus 2, UniProt P0DTD1). Kind of data set: Inhibition of recombinant SARS-CoV-2 PLpro using TLKGGI-AMC as substrate assessed as assessed as inhibition constant ny measuring fluorescence signal measured after 15 mins. The note with it: read-out: Ki.
For data set [6], the system named is Severe acute respiratory syndrome coronavirus 2. As to the kind of experiment: Reversible inhibition of SARS-CoV-2 MPro assessed as enzyme activity by dialysis. Further details: scale not given: the % may be the effect or the level left.
In data set [7] the target is Chymotrypsin (Homo sapiens) (UniProt Q99895+P17538+P40313+Q6GPI1). Kind of data set: Inhibition of Chymotrypsin (unknown origin) assessed as BSA digestion. The class given is protein assay.
In data set [8] the target is Replicase polyprotein 1ab (Severe acute respiratory syndrome coronavirus 2) (UniProt P0DTD1). As to the kind of experiment: Non-covalent binding affinity to SARS-CoV-2 PLpro assessed change in molecular weight by Mass spectrometry.
Data set [9] is described as follows: Acute toxicity in rat assessed as morphological changes in liver in portal, periportal, and centrilobular regions at 175 to 2000 mg/kg, po measured for 14 days by Hand E staining based analysis. The class given is organism-based. The following applies: in vivo, 336 h, dose 175-2000 mg/kg, time 14 day.
The nature of data set [10]: Acute toxicity in rat assessed as toxicity at 175 to 2000 mg/kg, po measured for 14 days. It counts as organism-based. The note with it: in vivo, dose 175-2000 mg/kg, time 14 day.
Data set [11] in a line: Acute toxicity in rat assessed as change in body weight at 175 to 2000 mg/kg, po measured for 14 days. The class given is organism-based. The following applies: in vivo, 336 h, dose 175-2000 mg/kg, time 14 day.
Data set [12] has as its system Severe acute respiratory syndrome coronavirus 2. As to the kind of experiment: Binding affinity to SARS-CoV-2 MPro assessed as thermal stability by measuring melting temperature of half of the proteins unfolded by differential scanning fluorimetry (DSF) (reference value: 52.46 degC).
Data set [13] has as its system SARS-CoV-2. Kind of data set: Antiviral activity against SARS-CoV-2 infected in African green monkey Vero E6 cells assessed as viral reduction by measuring viral RNA measured up to 72 hrs by RT-PCR analysis. The class given is functional, organism-based. The note with it: Severe acute respiratory syndrome coronavirus 2, SARS-CoV-2, Vero C1008, 72 h.
Data set [14] has as its target Replicase polyprotein 1ab (Severe acute respiratory syndrome coronavirus 2) (UniProt P0DTD1). Kind of data set: Non-covalent inhibition of SARS-CoV-2 PLpro by Lineweaver-Burk Plot analysis.
A short description of data set [15]: Cytotoxicity against African green monkey Vero E6 cells assessed as cell viability at 100 uM measured after 48 hrs by MTT assay relative to control. It counts as toxicity, cell-based, Vero C1008. The following applies: chlorocebus sabaeus, read-out: Activity.
Data set [16] deals with Replicase polyprotein 1ab (Severe acute respiratory syndrome coronavirus 2) (UniProt P0DTD1). Kind of data set: Covalent binding affinity to SARS-CoV-2 PLpro assessed as change in molecular weight by Mass spectrometry.
The target is the same in data set [17]. Kind of data set: Reversible inhibition of SARS-CoV-2 PLpro assessed as enzyme activity by dialysis. More on the design: scale not given: the % may be the effect or the level left.
Data set [18] in a line: Inhibition of SARS-CoV-2 MPro using Dabcyl-KTSAVLQ/SGFRKME- (Edans) as substrate by FRET assay. More on the design: species or system Severe acute respiratory syndrome coronavirus 2.
Data set [19] can be described thus: Cytotoxicity against African green monkey Vero E6 cells assessed as cell viability at 10 uM measured after 48 hrs by MTT assay relative to control. The following applies: chlorocebus sabaeus, read-out: Activity. The class given is toxicity, cell-based, Vero C1008.
Data set [20] deals with SARS-CoV-2. As to the kind of experiment: Anti-viral activity against SARS-CoV-2 Calu-3 by direct yield reduction assay (DYRA). The class given is functional, organism-based. The following applies: Severe acute respiratory syndrome coronavirus 2, Calu-3, Calu-3.
Data set [21] has as its system SARS-CoV-2. Kind of data set: Antiviral activity against SARS-CoV-2 infected in African green monkey Vero E6 cells assessed as viral load reduction at 0.125 uM by measuring viral RNA measured up to 72 hrs by RT-PCR analysis relative to control. It counts as functional. The note with it: Severe acute respiratory syndrome coronavirus 2, Vero C1008.
Data set [22] concerns Severe acute respiratory syndrome coronavirus 2. As to the kind of experiment: Covalent binding affinity to SARS-CoV-2 MPro assessed as change in molecular weight by Mass spectrometry.
The test system is the same in data set [23]. As to the kind of experiment: Non-covalent binding affinity to SARS-CoV-2 MPro assessed change in molecular weight by Mass spectrometry.
For data set [24], the system named is SARS-CoV-2. As to the kind of experiment: Anti-viral activity against SARS-CoV-2 BavPat1 infected in Vero E6 cells assessed as inhibition of viral RNA replication. The class given is functional, organism-based. The following applies: Severe acute respiratory syndrome coronavirus 2, BavPat1, Vero C1008.
The test system of another data set is Human coronavirus 229E. Kind of data set: Antiviral activity against HCoV-229E infected in human Huh7.5 Fluc cells. The class given is functional, organism-based.
Data set [25] has as its target T1, Replicase polyprotein 1ab. Kind of data set: Inhibition of SARS-CoV-2 PLPro.

With `CCOC(=O)c1sc(NNC(=O)c2ccc([N+](=O)[O-])cc2)nc1C`, in data set [1], the IC50 at 48 h amounted to 25.9 µM. Moreover, the outcome in [2], in [8] and in data set [14] was Active. The results for the Tm in [3] and in data set [12] were 41.5 °C and 51 °C, respectively. The Activity is above 80% with SARS-CoV-2 [4]; above 90% in data set [6]; “Non-toxic” in data set [9]; “Non-toxic” in data set [11]; above 90% in data set [17]. Further, the Ki in [5] worked out at 0.45 µM. For the same compound, in [7], the inhibition result is “inactive”. For the same compound, the LD50 at 336 h in [10] was above 2000 mg/kg. In addition, the EC50 in the data set with SARS-CoV-2 [13] was determined as 0.097 µM. Also, in data set [15], the viability at 48 h, 100 µM was 89.2%. Moreover, the result in data set [16] was inactive.
Regarding `N#Cc1ccc2nc(N3C(=O)CSC3c3c(F)cccc3Cl)sc2c1` (configuration not stated), the IC50 in data set [18] was found to be 0.01 µM.
`COc1cccc2c1C(=O)c1c(O)c3c(c(O)c1C2=O)C[C@@](O)(C(=O)CO)C[C@@H]3O[C@H]1C[C@H](N)[C@H](O)[C@H](C)O1` [DOXORUBICIN]: the half-maximal inhibitory concentration (IC50) at 48 h in data set [1] was found to be 8.23 µM. The viability at 48 h, 10 µM in data set [19] is 38.2%.
In turn, `Cc1nc(NC(=O)C(C)(C)C)sc1-c1cnc(N(CC(C)(C)O)C2CCCCC2)s1` returned an IC50 in the data set with SARS-CoV-2 [20] of 1.57 µM.
With `CCOC(=O)c1sc(NNC(=O)/C=C/c2ccccc2)nc1C`, the 50% inhibitory concentration (IC50) at 48 h in [1] worked out at 180 µM. In addition, the outcome in [2], in [8] and in data set [14] was Active. In addition, the Tm in [3] was found to be 41.5 °C; in data set [12], 49.9 °C. Moreover, the Activity is 56% with SARS-CoV-2 [4]; above 90% in data set [6]; “Non-toxic” in data set [9]; “Non-toxic” in [11]; above 90% in [17]. Besides, the Ki in [5] was 0.2 µM. For the same compound, in data set [7], the inhibition result is “inactive”. Besides, the result (in the data set on SARS-CoV-2 [21]; in data set [16]) was inactive. Moreover, in [10], the LD50 at 336 h is above 2000 mg/kg. Moreover, the EC50 with SARS-CoV-2 [13] is 0.848 µM. For the same compound, the viability at 48 h, 100 µM in [15] is 87.5%.
As for `O=c1c2ccccc2[se]n1-c1ccccc1` [EBSELEN], the outcome in [22] was Active. The Tm in [3] was determined as 45.4 °C; in data set [12], 52.4 °C. The inhibition entry in data set [7] is “inactive”. Also, in [23], the result was inactive.
Take `CN(/N=C/c1ccccc1C(=O)O)c1ncc(-c2ccccc2Cl)s1`: the EC50 with SARS-CoV-2 [24] amounted to 0.014 µM.
The compound `C=C1NC(=O)[C@]2(C)CSC(=N2)c2csc(n2)[C@]2(C)CSC(=N2)C([C@@H](C)CC)NC(=O)[C@@H](C)NC(=O)/C(=C\C(C)C)COC(=O)c2csc(n2)[C@H](C(C)C)N(C)C(=O)[C@H](COC)NC1=O` (some centres not stated) displayed an IC50 in the data set on Human coronavirus 229E of 2.39 µM.
In turn, `O=C(O)c1cc(F)c2nc(N3[C@@H]4CC[C@H]3C[C@@H](OCc3c(-c5ccccc5OC(F)(F)F)noc3C3CC3)C4)sc2c1` [TROPIFEXOR] gave an IC50 in data set [25] of 5.11 µM.
